The text below walks through data of patent US6281352.

Like-named read-outs stand apart in the source and are kept apart here.

Take `C=C1CO[C@H](COCc2ccccc2)[C@@H](C/C=C/c2ccccc2)C(=O)N[C@H](C(=O)NC)CCCN(C(C)=O)C1`: the ring closure, yield of all isomers (from C=C(CBr)CO[C@H](COCc1ccccc1)[C@@H](C/C=C/c1ccccc1)C(=O)N[C@@H](CCCN)C(=O)NC, amine bond, diisopropylethylamine, acetonitrile, 2.1 mM, 3 steps) turned out to be 76%.

Where the note is “from CNC(=O)[C@@H](N)CCCCNC(=O)C[C@@H](N[C@@H](CCc1ccccc1)C(=O)O)C(=O)OC(C)(C)C, amide bond, BOP, DMF, 24.0 h, 2 steps”, `CNC(=O)[C@@H]1CCCCNC(=O)C[C@H](C(=O)OC(C)(C)C)N[C@@H](CCc2ccccc2)C(=O)N1` returned a ring closure, yield of all isomers of 30%.

With `CNC(=O)[C@@H]1CCC(=O)OCCC[C@H](C(=O)OC(C)(C)C)[C@@H](CC(C)C)C(=O)N1`, the ring closure, yield of all isomers (from CNC(=O)[C@H](CCC(=O)O)NC(=O)[C@H](CC(C)C)[C@H](CCCO)C(=O)OC(C)(C)C, ester bond, PPh3/DIAD, THF, 9.4 mM, 16.0 h, 2 steps) is 24%.

`CNC(=O)[C@@H]1CCCCN(S(=O)(=O)c2c(C)cc(C)cc2C)CCC[C@H](C(=O)OC(C)(C)C)[C@@H](CC(C)C)C(=O)N1` showed a ring closure, yield of all isomers (from CNC(=O)[C@H](CCCCNS(=O)(=O)c1c(C)cc(C)cc1C)NC(=O)[C@H](CC(C)C)[C@H](CCCO)C(=O)OC(C)(C)C, amine bond, PPh3/DIAD, THF, 21.5 mM, 16.0 h, 2 steps) of 30%.

`CNC(=O)[C@@H]1CCCCNC(=O)CC[C@H](C(=O)OC(C)(C)C)N[C@@H](CCc2ccccc2)C(=O)N1` returned a ring closure, yield of all isomers (from CNC(=O)[C@@H](N)CCCCNC(=O)CC[C@@H](N[C@@H](CCc1ccccc1)C(=O)O)C(=O)OC(C)(C)C, amide bond, BOP, DMF, 24.0 h) of 16%.

Compound `CNC(=O)[C@@H]1CCCCN(S(=O)(=O)C(F)(F)F)CCC[C@H](C(=O)OC(C)(C)C)[C@@H](CC(C)C)C(=O)N1` displayed a ring closure, yield of all isomers (from CNC(=O)[C@H](CCCCNS(=O)(=O)C(F)(F)F)NC(=O)[C@H](CC(C)C)[C@H](CCCO)C(=O)OC(C)(C)C, amine bond, DIAD/PPh3, THF, 15.6 mM, 16.0 h, 2 steps) of 52%.

`COC(=O)[C@@H]1Cc2ccc(cc2)OCCC[C@H](C(=O)OC(C)(C)C)[C@@H](CC(C)C)C(=O)N1` gave a ring closure, yield of all isomers (from COC(=O)[C@H](Cc1ccc(O)cc1)NC(=O)[C@H](CC(C)C)[C@H](CCCBr)C(=O)OC(C)(C)C, ether bond, Cs2CO3, DMF, 32.8 mM, 80.0 °C, 0.75 h) of 74%.

As for `COC(=O)[C@@H]1CCCc2ccc(cc2)OCCC[C@H](C(=O)OC(C)(C)C)[C@@H](CC(C)C)C(=O)N1`, the ring closure, yield of all isomers (from COC(=O)[C@H](CCCc1ccc(O)cc1)NC(=O)[C@H](CC(C)C)[C@H](CCCBr)C(=O)OC(C)(C)C, ether bond, Cs2CO3, DMF, 8.7 mM, 0.0 °C, 2.0 h) is 32%.

Compound `CNC(=O)[C@@H]1CCCCN(S(=O)(=O)c2cn(C)cn2)CCC[C@H](C(=O)OC(C)(C)C)[C@@H](CC(C)C)C(=O)N1` registered a ring closure, yield of all isomers (from CNC(=O)[C@H](CCCCNS(=O)(=O)c1cn(C)cn1)NC(=O)[C@H](CC(C)C)[C@H](CCCO)C(=O)OC(C)(C)C, amine bond, PPh3/DIAD, THF, 17.1 mM, 16.0 h) of 52%.

The compound `CNC(=O)[C@@H]1CCCCN(S(=O)(=O)c2ccc([N+](=O)[O-])cc2)CCC[C@H](C(=O)OC(C)(C)C)[C@@H](CC(C)C)C(=O)N1` registered a ring closure, yield of all isomers (from CNC(=O)[C@H](CCCCNS(=O)(=O)c1ccc([N+](=O)[O-])cc1)NC(=O)[C@H](CC(C)C)[C@H](CCCO)C(=O)OC(C)(C)C, amine bond, PPh3/DIAD, THF, 24.7 mM) of 26%.
